{"source": "patent US20240069010A1", "about": "“TISSUE ORGANOID BIOPRINTING AND HIGH-THROUGHPUT SCREENING METHODOLOGY” (priority 2020, published 2024)", "key": {"[1]": {"test_system": "MCF-7 organoids", "test": "HSLCI mass tracking of bioprinted organoids in drug screening", "format": "cell-based", "settings": "for Mean mass of MCF-7 organoids, Mean mass ± SD: 48 hours of treatment; for Organoid Behavior (%) Stable / Organoid Behavior (%) Gained Mass / Organoid Behavior (%) Lost Mass: MCF-7 organoids; for Organoid Behavior (%) Stable: mass change <10%; for Organoid Behavior (%) Gained Mass: mass increase >10%; for Organoid Behavior (%) Lost Mass: mass loss >10%", "source_text": "Cells were bioprinted using a CELLINK BioX with a Temperature-Controlled Printhead. Gcode files were written to print the desired single-layer geometry. We wrote standardized blocks of Gcode encode the print path for the repeated geometries. MATLAB (MathWorks, Inc.) was used to integrate these standardized blocks into full Gcode files with the defined coordinates for each well. We used 8-well plates when printing the larger constructs as the depth of the well in a standard 24-well plate prohibited the use of 0.5″ length needles. Large rings were necessary to deposit a sufficient number of cells for RNA-Seq and IHC. Four rings with a diameter of 14.5 mm were printed for RNA sequencing (approximately 200,000 cells total), while four sets of concentric 14.5 mm, 12.5 mm, and 10.5 mm diameter rings were used for IHC analysis (approximately 500,000 cells total). We printed mini-squares with side length 3.9 mm for drug screening and HSLCI imaging. The mini-squares were inscribed within the circular well with sides parallel to the sides of the well plate. The open center of the constructs facilitates automatic manipulation with fluid handling equipment while the sides of the square are positioned to maximize the number of organoids imaged by HSLCI. The bioprinting process utilized the same material deposited for manually seeded organoids. A single cell suspension, aggregates or clusters in a 3:4 mixture of MammoCult™ and Matrigel® was prepared on ice. After vortexing briefly to homogenize, the mixture was transferred into a 3 mL syringe by removing the plunger and capping the opposite end. Once the plunger was replaced, the syringe was inverted, and bubbles were forced out of the tip. The material was then transferred to a room temperature 3 mL bioprinter cartridge (CELLINK) by connecting the syringe and cartridge with a double-sided female Luer lock adapter (CELLINK). Any air bubbles in the syringe were removed and the loaded cartridge was incubated in a rotating incubator (Enviro-Genie, Scientific Industries) for 30 minutes at the print temperature.\nDuring the incubation period, the printer was sterilized with the built-in UV irradiation function and the printhead was set to the print temperature. […] The well masks were autoclaved prior to use. The masks were inserted into the well plate and pressed in contact with the glass surface. Rubber bands were used to hold the masks in place and ensure conformal contact was maintained throughout the plasma treatment. The well plates were treated with oxygen plasma in a PE-25 (Plasma Etch) for 30-90 seconds, 15 minutes prior to bioprinting. After plasma treatment, the well plate was placed in the bioprinter and Automatic Bed Levelling (ABL) was performed.\nOnce the incubation period ended, we attached a 0.5″ 25-gauge needle and loaded the cartridge into the pre-cooled printhead. We primed the needle by extruding a small volume of material at 15 kPa prior to calibrating the printer. Just before printing, we cleared the needle of the gelled material by extruding a small volume using 40 kPa prior to starting the print. To create constructs of the appropriate thicknesses, prints in 8-well plates were extruded at 15 kPa while prints in 96-well plates were extruded at 12-15 kPa. […] After printing, the constructs were incubated at 37° C. for at least 30 minutes to solidify the matrix and 100 μL of MammoCult™ medium was then added.\nThe HSLCI platform was installed inside a standard cell culture incubator. For all growth kinetics studies and drug screening, organoids were imaged in 96-well glass-bottom plates (Cellvis P96-1.5H-N) using a 40× objective (Nikon, NA 0.75). Organoids were seeded as single-cell suspensions in a 3:4 mixture of MammoCult™ and Matrigel® as described above and were grown at 37° C. and 5% CO2 in MammoCult™ medium supplemented with 1% antibiotic-antimycotic (Gibco 15240-062)."}, "[2]": {"test_system": "BT-474 organoids", "test": "Endpoint ATP-release assay (CellTiter-Glo) of organoid viability", "format": "cell-based", "settings": "for Organoid viability by endpoint ATP assay, Viability ± SD: BT-474, 72 h of treatment, luminescence relative to 1% DMSO control; for viability at 0.1 µM / viability at 1 µM / viability at 10 µM: Homo sapiens", "protocol": "All drug treatments of 3D organoids were performed in serum-free conditions in MammoCult™ medium supplemented with 1% antibiotic-antimycotic (Gibco 15240-062). A detailed protocol for the drug screening has been published previously in Phan, N. et al. supra; and Nguyen, H. T. L. & Soragni, supra. Briefly, the culture medium was fully removed three days after seeding and replaced with 100 μL of MammoCult™ medium containing the indicated treatments using an automated pipetting system (EpMotion® 96). After treatment, we transferred the organoids to the HSLCI for imaging. […] The media was aspirated from each well and replaced with 50 μL of 5 mg/mL Dispase (Thermo-Fisher) solution to digest the Matrigel. After a 25-minute incubation at 37° C., the plate was placed on an orbital shaker for 5 minutes at 80 RPM. We then added 30 μL of CellTiter-Glo® reagent (Promega), sealed the plate with film, covered the plate with foil to protect from light, shook the plate for 5 minutes at 80 RPM, and incubated at room temperature for an additional 20 minutes. We used a SpectraMax iD3 plate reader to measure luminescence. The program parameters for luminescence readings were 5 minutes of shaking prior to reading, reading all wavelengths, and integrating signal over 500 ms. Organoid viability within each well was calculated by dividing the luminescent signal from each well by the mean luminescence of the control (1% DMSO) wells. Two-tailed independent t-tests were performed to assess the statistical significance of the differences in organoid mass and cell viability. P-values less than 0.05 were deemed significant."}, "[3]": {"settings": "BT-474, 48 h, read-out: Comparisons of cell viability measures by ATP detection assay, Mean mass ± SD"}, "[4]": {"settings": "BT-474, 72 h, read-out: Organoid viability by endpoint ATP assay, Viability ± SD"}}, "note": "Like-named read-outs stand apart in the source and are kept apart here."}
{"compound": "CN[C@@H]1C[C@H]2O[C@@](C)([C@@H]1OC)n1c3ccccc3c3c4c(c5c6ccccc6n2c5c31)C(=O)NC4", "note": "[Staurosporine, staurosporine]", "values": [{"measurement": "Mean mass of MCF-7 organoids, Mean mass ± SD", "setting": "[1]; 1 μM", "result": "1.33 ± 1.07", "unit": "ng"}, {"measurement": "Mean mass of MCF-7 organoids, Mean mass ± SD", "setting": "[1]; 1 μM, listed as staurosporine", "result": "1.33 ± 1.08", "unit": "ng"}, {"measurement": "Mean mass of MCF-7 organoids, Mean mass ± SD", "setting": "[1]; 10 μM", "result": "1.26 ± 0.78", "unit": "ng"}, {"measurement": "Mean mass of MCF-7 organoids, Mean mass ± SD", "setting": "[1]; 10 μM, listed as staurosporine", "result": "1.26 ± 0.80", "unit": "ng"}, {"measurement": "Organoid Behavior (%) Stable", "setting": "[1]; 0.1 μM, 12 h", "result": 76.5, "unit": "%"}, {"measurement": "Organoid Behavior (%) Gained Mass", "setting": "[1]; 0.1 μM, 12 h", "result": 8.8, "unit": "%"}, {"measurement": "Organoid Behavior (%) Lost Mass", "setting": "[1]; 0.1 μM, 12 h", "result": 14.7, "unit": "%"}, {"measurement": "Organoid Behavior (%) Stable", "setting": "[1]; 0.1 μM, 24 h", "result": 60.5, "unit": "%"}, {"measurement": "Organoid Behavior (%) Lost Mass", "setting": "[1]; 0.1 μM, 24 h", "result": 23.3, "unit": "%"}, {"measurement": "Organoid Behavior (%) Stable", "setting": "[1]; 0.1 μM, 48 h", "result": 38.2, "unit": "%"}, {"measurement": "Organoid Behavior (%) Gained Mass", "setting": "[1]; 0.1 μM, 48 h", "result": 29.4, "unit": "%"}, {"measurement": "Organoid Behavior (%) Lost Mass", "setting": "[1]; 0.1 μM, 48 h", "result": 32.4, "unit": "%"}, {"measurement": "Organoid Behavior (%) Stable", "setting": "[1]; 1 μM, 12 h", "result": 82.1, "unit": "%"}, {"measurement": "Organoid Behavior (%) Gained Mass", "setting": "[1]; 1 μM, 12 h", "result": 7.1, "unit": "%"}, {"measurement": "Organoid Behavior (%) Lost Mass", "setting": "[1]; 1 μM, 12 h", "result": 10.7, "unit": "%"}, {"measurement": "Organoid Behavior (%) Stable", "setting": "[1]; 1 μM, 24 h", "result": 71.4, "unit": "%"}, {"measurement": "Organoid Behavior (%) Gained Mass", "setting": "[1]; 1 μM, 24 h", "result": 3.6, "unit": "%"}, {"measurement": "Organoid Behavior (%) Lost Mass", "setting": "[1]; 1 μM, 24 h", "result": 25.0, "unit": "%"}, {"measurement": "Organoid Behavior (%) Stable", "setting": "[1]; 1 μM, 48 h", "result": 73.3, "unit": "%"}, {"measurement": "Organoid Behavior (%) Lost Mass", "setting": "[1]; 1 μM, 48 h", "result": 26.7, "unit": "%"}, {"measurement": "Organoid Behavior (%) Stable", "setting": "[1]; 10 μM, 12 h", "result": 79.6, "unit": "%"}, {"measurement": "Organoid Behavior (%) Gained Mass", "setting": "[1]; 10 μM, 12 h", "result": 2.0, "unit": "%"}, {"measurement": "Organoid Behavior (%) Lost Mass", "setting": "[1]; 10 μM, 12 h", "result": 18.4, "unit": "%"}, {"measurement": "Organoid Behavior (%) Stable", "setting": "[1]; 10 μM, 24 h", "result": 51.4, "unit": "%"}, {"measurement": "Organoid Behavior (%) Gained Mass", "setting": "[1]; 10 μM, 24 h", "result": 0.0, "unit": "%"}, {"measurement": "Organoid Behavior (%) Lost Mass", "setting": "[1]; 10 μM, 24 h", "result": 48.6, "unit": "%"}, {"measurement": "Organoid Behavior (%) Stable", "setting": "[1]; 10 μM, 48 h", "result": 32.1, "unit": "%"}, {"measurement": "Organoid Behavior (%) Gained Mass", "setting": "[1]; 10 μM, 48 h", "result": 3.6, "unit": "%"}, {"measurement": "Organoid Behavior (%) Lost Mass", "setting": "[1]; 10 μM, 48 h", "result": 64.3, "unit": "%"}, {"measurement": "Organoid viability by endpoint ATP assay, Viability ± SD", "setting": "[2]; 1 μM", "result": "near-zero viability"}, {"measurement": "Organoid viability by endpoint ATP assay, Viability ± SD", "setting": "[2]; 10 μM", "result": "near-zero viability"}, {"measurement": "viability at 0.1 µM", "setting": "[2]; [3]", "result": "58 ± 14", "unit": "%"}, {"measurement": "viability at 1 µM", "setting": "[2]; [3]", "result": "2 ± 1", "unit": "%"}, {"measurement": "viability at 10 µM", "setting": "[2]; [3]", "result": 1, "unit": "%"}, {"measurement": "viability at 0.1 µM", "setting": "[2]; [4]", "result": "58 ± 14", "unit": "%"}, {"measurement": "viability at 1 µM", "setting": "[2]; [4]", "result": "2 ± 1", "unit": "%"}, {"measurement": "viability at 10 µM", "setting": "[2]; [4]", "result": 1, "unit": "%"}]}
